Assay results published in patent publication US20100267803A1, “Regulators Of Fat Metabolism As Anti-Cancer Targets” (The Research Foundation of State University Of New York, priority 2008, published 2010).

Columns and labels:
Type in all cases: cell-based, human
BT474 cells [1] = assay: RNAi screen, alamarBlue cell proliferation and viability; conditions: shRNA transfection
Source text: FIG. 1 An RNAi screen targeting genes overexpressed in breast cancer. (a) Three transfection mixes were produced for each shRNA and each was transfected into triplicate wells of BT474 cells. AlamarBlue was used to monitor cell proliferation and viability. […] (b) The genetic and functional linkage of NR1D1 and PBP. Mb refers to map position on chromosome 17. (c) ERBB2-overexpressing (OEX) and ERBB2 non-overexpressing (non-OEX) breast cancer cell lines as well as the (non-OEX) HMEC and HEK 293 cells were transfected and assayed as in (a). […] Genes clustered with ERBB2 are boxed.
Amplification of the ERBB2 oncogene occurs in 10-34% of breast cancer cases and is correlated with aggressive disease and poor clinical outcome^1. […] However, its success has been tempered by response rates of only 30% when used as a single agent therapy in patients with metastatic ERBB2-positive breast cancer^2. A large number of genes co-overexpressed with ERBB2 in this tumour type have been proposed to contribute to the aggressiveness of this cancer^3-5. Applicants have performed an unbiased functional RNAi screen^8-10 to determine if any of these co-overexpressed genes are essential for ERBB2 positive breast cancer cell survival.
RNAi screen, transfections and constructs. The flag-RevErba (flag-NR1D1) overexpression construct was a generous gift of M. Lazar. The LSXN-neu* (ERBB2) overexpression construct was a generous gift of L. Petti. shRNA constructs were expressed from the pSHAG-MAGIC 2 (pSM2) vector and derived from a genome-wide shRNA library^31. ShRNAs targeting the firefly (Photinus pyralis) luciferase gene were used as controls. Transfection efficiency was monitored by co-transfection with a modified MSCV-Puro vector expressing green fluorescent protein (GFP). The alamarBlue (Biosource) assay was performed 96 h post-transfection, since BT474 cells have a population doubling time of ˜100 hours. For mature sequences of the shRNAs that produced the best results on decreasing BT474 viability, Table S1; a complete list is available in the RNAi Codex web page (http://codex.cshl.edu). The shRNAs targeting the luciferase gene were constructed as described in the RNAi Codex web page (http://codex.cshl.edu/scripts/newmain.pl) using a modified pSM2 vector containing the PheS gene (pSM2-PheS) in the cloning site, as a negative selection marker. The empty vector control (pSM2e) was constructed by XhoI and EcoRI (New England Biolabs) digestion of pSM2-PheS, followed by nucleotide filling of protruding ends by Klenow polymerase and blunt-end ligation. Transfections were performed using FuGENE 6 and HD FuGENE (Roche) according to the manufacturer's protocol. High-throughput transfections were performed using an EpMotion 5070 fluidics station (Eppendorf). For quantification of alamarBlue we used a BioTek HT Synergy plate reader. AlamarBlue values from the RNAi screens on other cell types were also calculated as above and subjected to hierarchical cluster analysis using Cluster 2.11 (M. Eisen Lab).

FASN mRNA = assay: qRT-PCR of FASN mRNA in BT474 cells; conditions: shRNA or 20 μM GW9662 for 48 h
Description: (§1) FIG. 4 NR1D1 and PBP coordinate fatty acid metabolism in breast cancer cells. (a) BT474, MDA-MB-361, MCF-7 and HMEC cells were stained with Oil-Red O lipid and hematoxylin nuclear stains. (b) Fat stores were quantified by BODIPY 493/503 lipid probe staining (Error bars are s.d from 3 individual experiments). (c) FASN, ACLY, ACACA and FADS2 mRNA levels of BT474 cells treated with luciferase (control), PBP or NR1D1 shRNAs, or with vehicle and 20 μM of GW9662 for 48 h, analyzed by qRT-PCRs. (Error bars are s.d from 3 experiments; ***P<0.001, **P=0.005) (d) BT474 cells were transfected with FASN, ACLY and ACACA shRNAs and co-transfected with GFP. Transfected cells were counted at 24 h and 72 h and the 72h-to-24 h ratio for each shRNA was calculated and expressed as % of the control shRNA (luciferase). (Error bars are s.d from 3 individual experiments; **P<0.01, ***P<0.002). (e) BODIPY images and (f) quantification of BT474 cells transfected with luciferase (control), PBP or NR1D1 shRNAs and co-transfected with DsRed (Error bars are s.d from 3 individual experiments; ***P<0.03). Arrows indicate transfected cells.
(§2) Cell viability—apoptosis assays. […] At least 30 fields were imaged per single experiment. […] Immunoblotting. […] PCR reaction was run using standard conditions.

BT474 cells [2] = assay: Counts of GFP co-transfected BT474 cells (cell death / viability); conditions: shRNA co-transfected with GFP, counted up to 72 h
Description: Results are shown as percentage of control. (**P=0.03). (c) BT474 cells were transfected with luciferase (control), PBP and NR1D1 shRNAs and co-transfected with GFP. Green cells were counted at intervals and expressed as percentage of control. (Error bars are s.d from 3 individual experiments; *P<0.08, **P<0.03, ***P<0.005). (d) BT474 cells were transfected with luciferase (control), PBP or NR shRNAs for 48 h. Immunofluorescence was performed for cleaved Caspase-3 signal; cell nuclei were stained with Hoechst 33243. (e) Cells from […] were counted for cleaved Caspase-3 signal. (Error bars are s.d from 3 individual experiments; ***P<0.0003). (f) BT474 cells were transfected with luciferase (control) PBP, NR1D1 or PBP and NR1D1 shRNAs together and co-transfected with GFP. Transfected cells were counted at 24 h and 72 h and the 72 h-to-24 h ratio for each shRNA was calculated and expressed as % of the control shRNA (luciferase). (Error bars are s.d from 3 individual experiments; **P=0.01, ***P<0.002). (g) Cells from (f) were counted for cleaved Caspase-3 signal. (Error bars are s.d from 3 individual experiments; ***P<0.0001). (h) ERBB2 mRNA levels of BT474 cells transfected with luciferase (control), PBP or NR1D1 shRNAs for 48 h, analyzed by qRT-PCRs. (Error bars are s.d from 3 individual experiments; ***P=0.0001).
as §1
FIG. 5. (a) MDH1 and ME1 mRNA levels of BT474 cells treated with luciferase (control), PBP or NR1D1 shRNAs for 48 h, analyzed by qRT-PCRs. (Error bars are s.d from 3 experiments; **P<0.002 (b) BT474 and MCF-7 cells were transfected with luciferase (control) MDH1 and ME1 shRNAs (Error bars are s.d from 3 individual experiments; ***P=0.0003). (c) BT474 cells) assayed for cleaved Caspase-3 signal by immunofluorescence 48 h after transfection; cell nuclei were stained with Hoechst 33243. (d) Quantification of cleaved Caspase-3 signal from cells in (c). (Error bars are s.d from 3 individual experiments; ***P<0.005). (e) Enzymes involved in fatty acid synthesis and storage that are regulated by NR1D1 and PBP and their proposed contribution to energy production necessary for survival of ERBB2-positive breast cancer cells.
as §2

Row | Substance | effect on cell proliferation (BT474 cells [1]) | FASN transcript level (FASN mRNA) | cell death / viability (cell number of transfected cells) (BT474 cells [2])
1 | PBP shRNA: shRNA, mature sequence CCGAGTTCCTCTTATCCTA (shRNA) | most dramatic effect on cell proliferation | reduced | time-dependent decrease of cell number
2 | NR1D1 shRNA: shRNA, mature sequence GGCATGGTGTTACTGTGTA (shRNA) | most dramatic effect on cell proliferation | reduced | time-dependent decrease of cell number
